# Experimental data reported in patent US20140329766A1, “Prophylactic Compositions for Management of Microbial Infections in Patients with Brain Injury” (UTI LIMITED PARTNERSHIP, priority 2011, published 2014).
# Tests used:
# [1] = Alanine transaminase (ALT) activity assay in peripheral blood; format: in vivo; conditions: post-ischemic mice after the single dose of α-GalCer (FIG. 45B)
# Experimental: Separate groups of control sham-operated mice received a single-dose administration of the α-GalCer compositions following the procedures, both as outlined in Example 7 (one composition/one group of four mice). Also, separate groups of post-ischemic mice received a single-dose administration of the α-GalCer compositions about 2 h after the MCAO events, following the procedures as outlined in Example 7 (one composition/one group of four mice). All animals were euthenized 24 h after MCAO events, and their peripheral blood was harvested. The levels of alanine transaminase (ALT) in the samples were determined with an ALT activity assay following the manufacturer's instructions to determine the rates of oxidation of NADH to NAD^+.
# IFNγ = test: Serum cytokine IFNγ level in peripheral blood (Luminex); format: in vivo; conditions: post-ischemic mice 24 h after MCAO; α-GalCer 2 μg/mouse i.v. 2 h after MCAO (FIG. 43A)
# Experimental: Levels of the cytokine IFNγ present in peripheral blood were determined by collecting blood samples by cardiac puncture, which were then allowed to clot at room temperature for at least 30 mins. The samples were then centrifuged at 400×g for 10 mins for the retrieval of serum. The serum samples were analyzed for the cytokine IFNγ by using a multiplex mouse cytokine/chemokine kit, and a Luminex 200 apparatus according to manufacturer's instructions. The data were analyzed with the StarStation V.2.3 software from Applied Cytometry Systems (UK).
# [2] = Lung injury assessment (MPO activity, lung edema); format: in vivo; conditions: post-ischemic mice 24 h after MCAO
# Experimental: The lungs of anaesthetized mice were removed after specified period of reperfusion. For determination of lung myeloperoxidase (MPO) activity (an indicator of lung inflammation), samples of lungs were removed, weighed, immediately frozen in liquid nitrogen and stored at −80° C. until the MPO activity assay was performed. Myeloperoxidase activity was measured using an assay previously described (Krawisz et al., 1984) and modified to be used in a 96-well microtitre plate. Values are expressed as units of MPO activity per milligram of lung tissue (U/mg tissue). For determination of lung fluid content, the left lobes were dissected gently dried using a blotting paper, and weighed. The tissues were dried at 55° C. for 72 h and reweighed. The percentage of lung weight attributed to fluid was calculated as an indicator of lung edema formation.
# The lung tissues were removed at 24 h post-MCAO and assessed for: (i) myeloperoxidase activity as a measure of neutrophil infiltration, and (ii) for lung edema.
# [3] = Brain infarct size after MCAO; format: in vivo, mice; conditions: post-ischemic mice, single dose of α-GalCer (FIG. 45A)
# Experimental: Male mice of 8-12 weeks old were anesthetized by intraperitoneal injection of a mixture of 10 mg/kg xylazine hydrochloride (MTC Pharmaceuticals, Cambridge, ON) and 200 mg/kg ketamine hydrochloride (Rogar/STB, London, ON). Body temperature was maintained at 37° C. using a heating pad and temperature regulator with rectal probe. Mice were randomly divided into 2 groups: (i) sham-operated, and (ii) MCAO-operated. All surgical instruments were sterilized before the surgery. Before any incision, the area was swabbed with ethanol. To induce MCAO, a 10-mm incision was made on the right-hand side of the neck. Then, the common carotid artery, external carotid artery, and internal carotid artery were dissected free. The external carotid artery was further dissected distally, then coagulated and cut to serve as a stump. After applying temporary clamps at the common carotid artery and internal carotid artery, a monofilament with a silicon coating diameter of 0.21-0.23 mm (Doccol Corporation, Redlands, Calif., USA) was inserted into the stump of the external carotid artery. The monofilament then advanced a defined distance (12 mm) so that the distal end of the monofilament came to rest across the origin of the MCA. The stump of external carotid artery was tied off. The wound on the neck of the mouse was sutured and the mouse was then transferred onto a heat pad to maintain its body temperature at 37° C. After 30 mins of occlusion, the monofilament was withdrawn to allow reperfusion to occur. The animal then recovered from the anaesthesia. Rehydration of the mice was performed every 4 h with a subcutaneous injection of electrolytes and glucose. Food pellets softened with water were placed in the cage after surgery as the mice recovered, and access to water was provided. Sham-operated animals were subjected to the initial anaesthetic and neck incision only. The animals were then allowed to recover from anaesthetic. All animals were put onto a 37° C. heat pad, post-surgery, to recover from anaesthesia until euthanized.
# hepatic iNKT cells = test: Spinning disk confocal intravital microscopy of the liver: crawling behaviour of GFP+ (iNKT) cells; format: in vivo, mice; conditions: Cxcr6gfp/+ mice without MCAO (FIGS. 31A, 31B)
# Experimental: Murine liver intravital microscopy was performed as taught by Wong et al. (1997, A minimal role for selectins in the recruitment of leukocytes into the inflamed liver microvasculature. J. Clin. Invest. 99: 2782). Briefly, the tail vein of the anesthetized mice was cannulated to administer fluorescently labeled antibodies and/or additional anesthetic as required. Body temperature was maintained at 37° C. using an infrared heat lamp. Mice were placed in a right lateral position on an adjustable microscope stage. A lateral abdominal incision along the costal margin to the midaxillary line was made to exteriorize the liver, and all exposed tissues were moistened with saline-soaked gauze to prevent dehydration.
# Cells were tracked using ImageJ software version 1.45 (NIH at http://rsb.info.nih.gov/ij/). Time-lapse videos exported from Volocity were imported as .mov file, and then converted to 8-bit grayscale. Fluorescent cells were adjusted using threshold control, and noise particles less than 2.0 pixels were removed by filter. Movement of cells was measured using manual tracking, and was calculated for each track using ImageJ output spreadsheets. The cell velocity was expressed in distance (μm) per time (min). 30-40 tracks from 10 mins videos of each animal in each experimental group were analyzed.
# Excised livers were prepared for in vivo microscopic observation. Briefly, the liver was placed on the pedestal of an inverted microscope and the liver surface was then covered with a small piece of saline-soaked KimWipe to hold the organ in position. The liver microvasculature was visualized using a spinning-disk confocal microscopy and images were acquired with an Olympus IX81 inverted microscope using a ×10/0.40 UplanFL N objective. The microscope was equipped with a confocal light path (WaveFx, Quorum, Guelph, ON, CA) based on a modified Yokogawa CSU-10 head (Yokogawa Electric Corporation, Tokyo, Japan). Cxcr6^gfp/+ mice were used to visualize hepatic iNKT cells. Laser excitation wavelengths (Cobolt, Stockholm, Sweden) were used in rapid succession and visualized with the appropriate long-pass filters (Semrock, Rochester, N.Y.). Typical exposure time for each excitation wavelength was 300 milli-seconds. A 512×512 pixel back-thinned electron-multiplying charge-coupled device camera (C9100-13, Hamamatsu, Bridgewater, N.J.) was used for fluorescence detection. Volocity Acquisition software (Improvision) was used to drive the confocal microscope. […] Behaviors of iNKT cells in the hepatic microvasculature were assessed.
# Wildtype mice underwent the MCAO procedure as previously described in Example 1. […] The crawling behaviours of crawling GFP+ cells in livers from sham-operated control mice and post-ischemic mice were observed and quantified using the methods disclosed in Example 2.
smiles,measurement,setting,value
"CCCCCCCCCCCCCCCCCCCCCCCCCCC(=O)N[C@@H](COC1OC(CO)C(O)C(O)C1O)[C@H](O)[C@H](O)CCCCCCCCCCCCCC (stereo partly drawn) [α-GalCer, α-galactosylceramide]",liver enzyme (ALT) levels within the blood,[1],no significant difference
same,systemic levels of endogenous IFN-γ,IFNγ,significantly increased
same,stroke-induced neutrophil pulmonary influx (MPO activity in lung),[2]; 2 μg/mouse i.v. 2 h after MCAO (FIG. 43B),reduced
same,lung edema,[2]; 2 μg/mouse i.v. 2 h after MCAO (FIG. 43C),reduced
same,infarct sizes,[3],no notable differences
same,crawling behaviour of liver iNKT cells after administration of the activator,hepatic iNKT cells,cessation of iNKTcells
